In patent US11230538B2, “Herbicides” (SYNGENTA PARTICIPATIONS AG, priority 2016, dated 2022):

Legend:
Format in all cases: in vivo
[1] = test system: Lolium perenne (LOLPE); test: B2 Post-emergence herbicidal activity; conditions: post-emergence application, rate 1000 g/ha, evaluated after 13 days
In short: (§1)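 Post-emergence spray, 8-day-old potted seedlings; formulation acetone:water 50:50 + 0.5% Tween 20. Glasshouse 24/16 °C, 14 h light, 65% RH. Scored day 13, 0 (no damage) to 5 (total damage).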

[2] = test system: Echinochloa crus-galli (ECHCG); test: B2 Post-emergence herbicidal activity; design: key to Post-emergence herbicidal activity, ECHCG (damage score 0-5): 5=total damage to plant; 0=no damage to plant; conditions: post-emergence application, rate 1000 g/ha, evaluated after 13 days
In short: as §1

[3] = test system: Echinochloa crus-galli (ECHCG); test: B1 Pre-emergence herbicidal activity; design: key to Pre-emergence herbicidal activity, ECHCG (damage score 0-5): 5=total damage to plant; 0=no damage to plant; conditions: pre-emergence application, rate 1000 g/ha, evaluated after 13 days
In short: (§2)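 Pre-emergence spray one day after sowing; vehicle acetone/water 50:50 + 0.5% Tween 20. Glasshouse 24/16 °C, 14 h light, 65% RH, watered twice daily. Visual damage score at day 13, 0–5 scale (5 = total damage).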

[4] = test system: Alopecurus myosuroides (ALOMY); test: B1 Pre-emergence herbicidal activity; design: key: 5=total damage to plant; 0=no damage to plant; conditions: pre-emergence application, rate 1000 g/ha, evaluated after 13 days
In short: as §2

[5] = test system: Avena fatua (AVEFA); test: B1 Pre-emergence herbicidal activity; design: key: 5=total damage to plant; 0=no damage to plant; conditions: pre-emergence application, rate 1000 g/ha, evaluated after 13 days
In short: as §2

[6] = test system: Triticum aestivium (TRZAW); test: B1 Pre-emergence herbicidal activity; design: key: 5=total damage to plant; 0=no damage to plant; conditions: pre-emergence application, rate 1000 g/ha, evaluated after 13 days
In short: as §2

[7] = test system: Alopecurus myosuroides (ALOMY); test: B2 Post-emergence herbicidal activity; design: key: 5=total damage to plant; 0=no damage to plant; conditions: post-emergence application, rate 1000 g/ha, evaluated after 13 days
In short: as §1

[8] = test system: Triticum aestivium (TRZAW); test: B2 Post-emergence herbicidal activity; design: key: 5=total damage to plant; 0=no damage to plant; conditions: post-emergence application, rate 1000 g/ha, evaluated after 13 days
In short: as §1

[9] = test system: Setaria fabenri (SETFA); test: B2 Post-emergence herbicidal activity; design: key: 5=total damage to plant; 0=no damage to plant; conditions: post-emergence application, rate 1000 g/ha, evaluated after 13 days
In short: as §1

[10] = test system: Lolium perenne (LOLPE); test: B1 Pre-emergence herbicidal activity; design: key to Pre-emergence herbicidal activity, LOLPE (damage score 0-5): 5=total damage to plant; 0=no damage to plant; conditions: pre-emergence application, rate 1000 g/ha, evaluated after 13 days
In short: as §2

[11] = test system: Avena fatua (AVEFA); test: B2 Post-emergence herbicidal activity; conditions: post-emergence application, rate 1000 g/ha, evaluated after 13 days
In short: as §1

[12] = test system: Setaria fabenr (SETFA); test: B1 Pre-emergence herbicidal activity; design: key to Pre-emergence herbicidal activity, SETFA (damage score 0-5): 5=total damage to plant; 0=no damage to plant; conditions: pre-emergence application, rate 1000 g/ha, evaluated after 13 days
In short: as §2

| SMILES | Post-emergence herbicidal activity, LOLPE (damage score 0-5) [1] | Post-emergence herbicidal activity, ECHCG (damage score 0-5) [2] | Pre-emergence herbicidal activity, ECHCG (damage score 0-5) [3] | Pre-emergence herbicidal activity, ALOMY (damage score 0-5) [4] | Pre-emergence herbicidal activity, AVEFA (damage score 0-5) [5] | Pre-emergence herbicidal activity, TRAZW (damage score 0-5) [6] | Post-emergence herbicidal activity, ALOMY (damage score 0-5) [7] | Post-emergence herbicidal activity, TRAZW (damage score 0-5) [8] | Post-emergence herbicidal activity, SETFA (damage score 0-5) [9] | Pre-emergence herbicidal activity, LOLPE (damage score 0-5) [10] | Post-emergence herbicidal activity, AVEFA (damage score 0-5) [11] | Pre-emergence herbicidal activity, SETFA (damage score 0-5) [12] |
| --- | --- | --- | --- | --- | --- | --- | --- | --- | --- | --- | --- | --- |
| O=C(Nc1ccc(-c2cncnc2)nc1C(F)(F)F)C(Cl)(Cl)Cl [Compound C60] | 3 | 4 | 3 | 0 | 2 | 0 | 0 | 0 | 4 | 0 | 3 | 5 |
| COCCC(=O)Nc1ccc(-c2cncc(F)c2)nc1C(F)(F)F [Compound C24] | 4 | 5 | 4 | 1 | 4 | 0 | 1 | 1 | 5 | 1 | 4 | 5 |
| O=C1CCCN1c1ccc(-c2cncc(F)c2)nc1C(F)(F)F [Compound C55] | 2 | 4 | 1 | 0 | 1 | 0 | 1 | 0 | 4 | 1 | 3 | 4 |
| C#CCN(C(=O)CC)c1ccc(-c2cncc(F)c2)nc1C(F)(F)F [Compound C94] | 2 | 4 | 2 | 0 | 1 | 0 | 0 | 0 | 5 | 1 | 2 | 5 |
| CCCCC(=O)Nc1ccc(-c2cncc(F)c2)nc1C(F)(F)F [Compound C49] | 3 | 5 | 5 | 1 | 2 | 0 | 1 | 0 | 5 | 1 | 4 | 5 |
| CC(C)C(=O)Nc1ccc(-c2cncc(C#N)c2)nc1C(F)(F)F [Compound C11] | 1 | 3 | 1 | 0 | 0 | 0 | 1 | 0 | 5 | 1 | 2 | 4 |
| CCC(=O)N(CCC(F)F)c1ccc(-c2cncc(F)c2)nc1C(F)(F)F [Compound C62] | 2 | 5 | 3 | 0 | 2 | 0 | 1 | 1 | 5 | 1 | 4 | 4 |
| CCC(=O)N(COCC(C)(C)C)c1ccc(-c2cncc(F)c2)nc1C(F)(F)F [Compound C99] | 2 | 4 | 2 | 0 | 1 | 0 | 0 | 0 | 5 | 1 | 2 | 5 |
| O=C(Nc1ccc(-c2cncc(F)c2)nc1C(F)(F)F)c1cccnc1 [Compound C50, N-[6-(5-fluoro-3-pyridyl)-2-(trifluoromethyl)-3-pyridyl]pyridine-3-carboxamide] | 1 | 2 | 3 | 0 | 1 | 0 | 1 | 0 | 4 | 1 | 3 | 4 |
| O=C(CC(F)(F)F)Nc1ccc(-c2cncc(F)c2)nc1C(F)(F)F [Compound C56] | 2 | 4 | 3 | 0 | 1 | 0 | 0 | 1 | 4 | 0 | 3 | 4 |
